Consider 15 compounds from patent US20240246908A1 (ORION CORPORATION, priority 2021, published 2024).

Each structure is given as a SMILES string. Where only a bound is given, the exact number is not on record here.

In this assay the test system is YAP-TEAD. Description: TEAD inhibition, Hippo Pathway TEAD Reporter MCF-7 luciferase assay. The format is cell-based. The following applies: Homo sapiens, MCF7, 24 h, Hippo Pathway TEAD Reporter MCF-7 cells, luciferase activity after 24 h; read-out: IC50 of the test compounds on YAP-TEAD inhibition (Group). The method in brief:
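IC50 derived from ONE-Glo luciferase luminescence after 24 h compound exposure (11 concentrations in quadruplicate, 0.1% DMSO control). Reporter: MCF-7 line expressing firefly luciferase under TEAD elements, constitutively activated by nuclear YAP1.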
With `COc1ccc(Oc2ccc(C(F)(F)F)cc2)cc1NC(=O)C1CCS(=N)(=O)CC1` (stereo not drawn) [Compound 381, 1-Imino-N-(2-methoxy-5-(4-(trifluoromethyl)phenoxy)phenyl)-hexahydro-1λ^6-thiopyran-4-carboxamide 1-oxide], the IC50 (as a rule, the point on the concentration scale where inhibition reaches its midpoint) was in the range of 50 to 300 nM. On to `COc1cc(F)c(Oc2ccc(C(F)(F)F)cc2)cc1NC(=O)C1CNC(=O)N1C` (stereo not drawn) [Compound 382, N-(4-Fluoro-2-methoxy-5-(4-(trifluoromethyl)phenoxy)phenyl)-3-methyl-2-oxoimidazolidine-4-carboxamide], for which the IC50 was below 50 nM. With `CN1CC(=O)N(C)C(C(=O)Nc2cc(Oc3ccc(C(F)(F)F)cc3)cc3c2OCC3)C1` (stereo not drawn) [Compound 383, 1,4-Dimethyl-6-oxo-N-(5-(4-(trifluoromethyl)phenoxy)-2,3-dihydrobenzofuran-7-yl)piperazine-2-carboxamide] the figure was 50 to 300 nM; with `COc1ccc(Oc2ccc(Cl)cc2F)cc1NC(=O)C1CCC(=O)N1C` (stereo not drawn) [Compound 385, N-(5-(4-Chloro-2-fluorophenoxy)-2-methoxyphenyl)-1-methyl-5-oxopyrrolidine-2-carboxamide], below 50 nM; with `COc1ccc(NC(=O)C2CCC(=O)N2C)cc1Cc1ccc(C(F)(F)F)cc1` (stereo not drawn) [Compound 387, N-(4-Methoxy-3-(4-(trifluoromethyl)benzyl)phenyl)-1-methyl-5-oxo-pyrrolidine-2-carboxamide], 301 to 2000 nM.

As for `COc1ccc(Oc2ccc(C(F)(F)F)cc2)cc1NC(=O)c1coc(=O)[nH]1` [Compound 388, N-(2-Methoxy-5-(4-(trifluoromethyl)phenoxy)phenyl)-2-oxo-2,3-dihydrooxazole-4-carboxamide], the IC50 is 301 to 2000 nM. With `COc1ccc(Oc2ccc(F)c(F)c2)c(C)c1NC(=O)C1CCC(=O)N1C` (stereo not drawn) [Compound 389, N-(3-(3,4-Difluorophenoxy)-6-methoxy-2-methylphenyl)-1-methyl-5-oxopyrrolidine-2-carboxamide] the figure was 301 to 2000 nM; with `COc1ccc(Oc2cccc(C#N)c2)cc1NC(=O)C1CCC(=O)N1C` (stereo not drawn) [Compound 390, N-(5-(3-Cyanophenoxy)-2-methoxyphenyl)-1-methyl-5-oxopyrrolidine-2-carboxamide], 301 to 2000 nM. In the case of `COc1ccc(Oc2ccc(C(F)(F)F)c(OC)c2)cc1NC(=O)C1CCC(=O)N1C` (stereo not drawn) [Compound 391, N-(2-Methoxy-5-(3-methoxy-4-(trifluoromethyl)phenoxy)phenyl)-1-methyl-5-oxopyrrolidine-2-carboxamide] it was below 50 nM. In the case of `COc1ccc(Oc2ccc(C(F)(F)F)cc2)cc1NC(=O)c1nnn[nH]1` [Compound 392, N-(2-Methoxy-5-(4-(trifluoromethyl)phenoxy)phenyl)-1H-tetrazole-5-carboxamide] it was 301 to 2000 nM; in that of `COc1ccc(Oc2cc(C(F)(F)F)ccn2)cc1NC(=O)[C@H]1CCC(=O)N1C` [Compound 393, (R)—N-(2-Methoxy-5-((4-(trifluoromethyl)pyridin-2-yl)oxy)phenyl)-1-methyl-5-oxopyrrolidine-2-carboxamide], 301 to 2000 nM.

For the compound `COc1ccc(Oc2cc(C(F)(F)F)ccn2)cc1NC(=O)[C@@H]1CCC(=O)N1C` [Compound 394, (S)—N-(2-Methoxy-5-((4-(trifluoromethyl)pyridin-2-yl)oxy)phenyl)-1-methyl-5-oxopyrrolidine-2-carboxamide], the IC50 lay in the range of 301 to 2000 nM. In the case of `COc1ccc(Oc2ccc(C(F)(F)F)c(F)c2)cc1NC(=O)C1CCC(=O)N1C` (stereo not drawn) [Compound 395] it was below 50 nM. With `COc1ccc(Oc2ccc(C#N)c(C(F)(F)F)c2)cc1NC(=O)C1CCC(=O)N1C` (stereo not drawn) [Compound 396, N-(5-(4-Cyano-3-(trifluoromethyl)phenoxy)-2-methoxyphenyl)-1-methyl-5-oxopyrrolidine-2-carboxamide] the figure was 50 to 300 nM; with `COc1ccc(Oc2ccc(F)c(C#N)c2)cc1NC(=O)C1CCC(=O)N1C` (stereo not drawn) [Compound 397, N-(5-(3-Cyano-4-fluorophenoxy)-2-methoxyphenyl)-1-methyl-5-oxopyrrolidine-2-carboxamide], 301 to 2000 nM.
